Measured values reported in US9062026B2, “Fused pyrimidines and substituted quinazolines as inhibitors of p97” (Cleave Biosciences, Inc., priority 2012, dated 2015).
pIC50: −log10 of the molar value.

Legend:
[1] = molecular target: p97 (Homo sapiens (Human), UniProt P55072); test: P97 ATPase biochem assay (ADP Glo); type: biochemical; conditions: read-out: p97 IC50
Experimental: The ATPase assay is performed according the following protocol: Purified enzyme (20 nM p97), substrate (20 μM ATP) and a dose titration of compounds are mixed in buffer (50 mM TRIS pH 7.5, 20 mM MgCl2, 0.02% TX-100, 1 mM DTT, 0.2% (v/v) glycerol) and incubated at 37° C. for 15 minutes. The reaction is terminated and the level of product generated is measured using the ADP Glo Assay Kit (Promega, Madison Wis.). Plotting product generated versus compound concentration and using a four-parameter fit model generates an IC50 value for each compounds.

[2] = system: A549 K48; test: A549 K48 cell intensity (lysine-48 poly-ubiquitin accumulation, immunofluorescence); type: cell-based; conditions: Homo sapiens
Experimental: Image-analysis is used to generate quantitative data from these assays that can be fit to a four-parameter sigmoid curve to derive IC50 values. Substrates of the ubiquitin-proteasome system, such as p53, are monitored after tumor cell lines are incubated with compounds for several hours. Accumulation of these proteins indicates an inhibition of proteasome-mediated degradation. Accumulation of lysine-48 chain linkage of poly-ubiquitin is also monitored by immunofluorescence as an indicator of ubiquitin-proteasome system inhibition. Both LC3 and SQSTM1 are mediators of autophagy. The localization and amounts of these proteins are monitored by immunofluorescence and report on the activity and inhibition of autophagy in response to p97 inhibition.

p97, sequence (P55072 whole entry): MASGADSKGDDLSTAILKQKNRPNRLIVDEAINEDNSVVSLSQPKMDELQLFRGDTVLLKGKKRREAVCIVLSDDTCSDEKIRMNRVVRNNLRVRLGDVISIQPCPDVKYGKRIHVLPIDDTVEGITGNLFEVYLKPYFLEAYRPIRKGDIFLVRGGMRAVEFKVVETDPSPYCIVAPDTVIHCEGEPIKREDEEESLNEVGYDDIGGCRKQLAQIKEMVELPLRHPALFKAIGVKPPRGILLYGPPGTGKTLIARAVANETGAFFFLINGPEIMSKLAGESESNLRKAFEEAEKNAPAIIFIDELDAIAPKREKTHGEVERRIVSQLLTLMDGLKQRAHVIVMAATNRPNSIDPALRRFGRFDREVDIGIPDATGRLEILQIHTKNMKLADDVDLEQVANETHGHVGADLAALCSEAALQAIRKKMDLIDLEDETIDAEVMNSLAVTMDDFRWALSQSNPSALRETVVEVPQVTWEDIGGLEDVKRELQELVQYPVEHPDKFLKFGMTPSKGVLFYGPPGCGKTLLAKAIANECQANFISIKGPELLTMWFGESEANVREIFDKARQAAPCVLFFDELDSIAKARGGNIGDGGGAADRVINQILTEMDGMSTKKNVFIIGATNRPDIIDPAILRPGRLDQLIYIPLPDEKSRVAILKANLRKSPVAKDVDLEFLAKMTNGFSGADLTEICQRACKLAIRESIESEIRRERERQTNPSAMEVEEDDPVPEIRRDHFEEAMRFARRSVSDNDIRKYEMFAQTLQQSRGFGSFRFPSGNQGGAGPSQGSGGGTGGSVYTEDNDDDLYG

Compound COc1cccc2c(NCc3ccccc3)nc(-n3c(OC)cc4ccccc43)nc12 [N-benzyl-8-methoxy-2-(2-methoxy-1H-indol-1-yl)quinazolin-4-amine] has a pIC50 [1] of over 7.00 and a pIC50 [2] of over 5.00.

With COc1cc2c(C(N)=O)cccc2n1-c1nc2c(c(NCc3ccccc3)n1)COCC2 [1-[4-(benzylamino)-5H,7H,8H-pyrano[4,3-d]pyrimidin-2-yl]-2-methoxy-1H-indole-4-carboxamide] the pIC50 [1] was over 7.52 and the pIC50 [2] was over 5.00.

Cc1cc2c(C(N)=O)cccc2n1-c1nc2c(c(NCc3ccccc3)n1)CNCC2 [1-[4-(benzylamino)-5H,6H,7H,8H-pyrido[4,3-d]pyrimidin-2-yl]-2-methyl-1H-indole-4-carboxamide] showed a pIC50 [1] of over 7.00 and a pIC50 [2] of over 5.00.

Compound NCc1cc2ccccc2n1-c1nc2c(c(NCc3ccccc3)n1)CCCC2 [2-[2-(aminomethyl)-1H-indol-1-yl]-N-benzyl-5,6,7,8-tetrahydroquinazolin-4-amine] has a pIC50 [1] of over 6.52 and a pIC50 [2] of over 5.00.

COc1cccc2c(NCc3ccccc3)nc(-n3c(C(C)N)cc4ccccc43)nc12 (stereo not shown) [2-[2-(1-aminoethyl)-1H-indol-1-yl]-N-benzyl-8-methoxyquinazolin-4-amine] was tested, and the pIC50 [1] was over 6.52 and the pIC50 [2] was over 5.00.

For COCCOc1cccc2c(NCc3ccccc3)nc(-n3c(CO)cc4ccccc43)nc12 [{1-[4-(benzylamino)-8-(2-methoxyethoxy)quinazolin-2-yl]-1H-indol-2-yl}methanol], the pIC50 [1] was over 7.00 and the pIC50 [2] was over 5.00.

Work on CS(=O)(=O)NCc1cc2ccccc2n1-c1nc2c(c(NCc3ccccc3)n1)CCCC2 [N-({1-[4-(benzylamino)-5,6,7,8-tetrahydroquinazolin-2-yl]-1H-indol-2-yl}methyl)methanesulfonamide] yielded a pIC50 [1] of over 6.52 and a pIC50 [2] of over 5.00.

With COc1cc2c(C#N)cccc2n1-c1nc2c(c(NCc3ccccc3)n1)CCCC2 [1-[4-(benzylamino)-5,6,7,8-tetrahydroquinazolin-2-yl]-2-methoxy-1H-indole-4-carbonitrile] the pIC50 [1] was over 7.00 and the pIC50 [2] was over 5.00.

Compound CN(C)Cc1cc2ccccc2n1-c1nc2c(c(NCc3ccccc3)n1)CCCC2 [N-benzyl-2-{2-[(dimethylamino)methyl]-1H-indol-1-yl}-5,6,7,8-tetrahydroquinazolin-4-amine] has a pIC50 [1] of over 6.52 and a pIC50 [2] of over 5.00.

Work on Cc1nc2c(C#N)cccc2n1-c1nc2c(c(NCc3ccccc3)n1)CCCC2 [1-[4-(benzylamino)-5,6,7,8-tetrahydroquinazolin-2-yl]-2-methyl-1H-1,3-benzodiazole-4-carbonitrile] yielded a pIC50 [1] of over 7.00 and a pIC50 [2] of over 5.00.

COc1cc2ccccc2n1-c1nc2c(c(NCc3ccccc3)n1)CCCC2 [N-benzyl-2-(2-methoxy-1H-indol-1-yl)-5,6,7,8-tetrahydroquinazolin-4-amine] showed a pIC50 [1] of over 7.52 and a pIC50 [2] of over 5.00.

In the case of COC(=O)NCc1cc2ccccc2n1-c1nc2c(c(NCc3ccccc3)n1)CCCC2 [methyl N-({1-[4-(benzylamino)-5,6,7,8-tetrahydroquinazolin-2-yl]-1H-indol-2-yl}methyl)carbamate], the pIC50 [1] was over 6.52 and the pIC50 [2] was over 5.00.

COCCOc1cccc2c(NCc3ccccc3)nc(-n3c(C)cc4ccccc43)nc12 [N-benzyl-8-(2-methoxyethoxy)-2-(2-methyl-1H-indol-1-yl)quinazolin-4-amine] was tested, and the pIC50 [1] was over 7.00 and the pIC50 [2] was over 5.00.

Compound COc1cc2c(C#N)cccc2n1-c1nc2c(c(NCc3ccccc3)n1)COCC2 [1-[4-(benzylamino)-5H,7H,8H-pyrano[4,3-d]pyrimidin-2-yl]-2-methoxy-1H-indole-4-carbonitrile] has a pIC50 [1] of over 7.00 and a pIC50 [2] of over 5.00.

Compound OCc1cc2ccccc2n1-c1nc2c(c(NCc3ccccc3)n1)CCCC2 [{1-[4-(benzylamino)-5,6,7,8-tetrahydroquinazolin-2-yl]-1H-indol-2-yl}methanol] has a pIC50 [1] of over 7.00 and a pIC50 [2] of over 5.00.

COc1cc2ccccc2n1-c1nc2c(c(NCc3ccccc3)n1)COCC2 [N-benzyl-2-(2-methoxy-1H-indol-1-yl)-5H,7H,8H-pyrano[4,3-d]pyrimidin-4-amine] was tested, and the pIC50 [1] was over 6.52 and the pIC50 [2] was over 5.00.

Work on COCCOc1cccc2c(NCc3ccccc3)nc(-n3c(OC)nc4ccccc43)nc12 [N-benzyl-2-(2-methoxy-1H-1,3-benzodiazol-1-yl)-8-(2-methoxyethoxy)quinazolin-4-amine] yielded a pIC50 [1] of over 6.52 and a pIC50 [2] of over 5.00.

Compound CCOc1cc2ccccc2n1-c1nc2c(c(NCc3ccccc3)n1)CCCC2 [N-benzyl-2-(2-ethoxy-1H-indol-1-yl)-5,6,7,8-tetrahydroquinazolin-4-amine] has a pIC50 [1] of over 7.00 and a pIC50 [2] of over 5.00.

In the case of COc1cccc2c(NCc3ccccc3)nc(-n3c(/C=C/S(C)(=O)=O)cc4ccccc43)nc12 [N-benzyl-2-{2-[(E)-2-methanesulfonylethenyl]-1H-indol-1-yl}-8-methoxyquinazolin-4-amine], the pIC50 [1] was over 6.52 and the pIC50 [2] was over 5.00.

In the case of CC(=O)NCc1cc2ccccc2n1-c1nc2c(c(NCc3ccccc3)n1)CCCC2 [N-({1-[4-(benzylamino)-5,6,7,8-tetrahydroquinazolin-2-yl]-1H-indol-2-yl}methyl)acetamide], the pIC50 [1] was over 7.00 and the pIC50 [2] was over 5.00.
